Assay results taken from patent US20240358692A1, “TREATMENT OF SCLERODERMA” (Aisa Pharma, Inc., priority 2023, published 2024).

Test system: participants with SSc-RP
Assay: SHAQ - Visual Analog Scale - Breathing Problems
Assay type: in vivo, human
Set-up: Visual Analog Scale-Breathing Problems, In Clinic Visit (Day 12), Mean / Visual Analog Scale-Breathing Problems, In Clinic Visit (Day 12), Median / SHAQ Visual Analogue Scale - Breathing Problems, In-Clinic Visit (Day 12), Mean / SHAQ Visual Analogue Scale - Breathing Problems, In-Clinic Visit (Day 12), Median / SHAQ Visual Analogue Scale - Breathing Problems, Change from Baseline, Median: scale not given here
Excerpt: The standard, validated, patient reported outcome measures tool for SSc patients, the Scleroderma Health Assessment Questionnaire (SHAQ), will be used to assess the participant qualify of life. Details are attached in the Appendix. The participant quality of life will be scored, and a disability index calculated for each questionnaire completed by the patient at Screening and each in-clinic visit. The absolute change in participant quality of life from baseline to the end of each dosing period will be calculated similar to frequency data as before.
The standard, validated, patient reported outcome measures tool for SSc patients, the SHAQ, was collected at the time points specified in the study schedules (FIG. 2 and FIGS. 4A and 4B) to assess the participant's quality of life. The SHAQ included a Raynaud's VAS that will also be reported separately.

[1] = Modified ITT Population-Part A, dose cilnidipine 10 mg, tadalafil 5 mg, alone or combined as labelled
[2] = Tadalafil 5 mg, SSc patients, PP, Part A

Compound: CN1CC(=O)N2[C@H](c3ccc4c(c3)OCO4)c3[nH]c4ccccc4c3C[C@@H]2C1=O [Tadalafil]
- Visual Analog Scale-Breathing Problems, Change from Baseline, Mean (Modified ITT Population-Part A, Day 12, dose cilnidipine 10 mg, tadalafil 5 mg, alone or combined as labelled): 0.500
- Visual Analog Scale-Breathing Problems, In Clinic Visit (Day 12), Mean [1]: 4.300
- Visual Analog Scale-Breathing Problems, In Clinic Visit (Day 12), Median [1]: 4.000
- SHAQ VAS Breathing Problems, Change from Baseline, Max [2]: 2.80
- SHAQ VAS Breathing Problems, Change from Baseline, Mean [2]: 0.500
- SHAQ VAS Breathing Problems, Change from Baseline, Median [2]: 1.050
- SHAQ VAS Breathing Problems, Change from Baseline, Min [2]: −2.90,
- SHAQ VAS Breathing Problems, Change from Baseline, Q1 [2]: −1.450,
- SHAQ VAS Breathing Problems, Change from Baseline, Q3 [2]: 2.450
- SHAQ VAS Breathing Problems, Day 12, Max [2]: 9.20
- SHAQ VAS Breathing Problems, Day 12, Mean [2]: 4.300
- SHAQ VAS Breathing Problems, Day 12, Median [2]: 4.000
- SHAQ VAS Breathing Problems, Day 12, Min [2]: 0.00,
- SHAQ VAS Breathing Problems, Day 12, Q1 [2]: 0.100,
- SHAQ VAS Breathing Problems, Day 12, Q3 [2]: 8.500
- SHAQ VAS Breathing Problems, Percent Change from Baseline, Max [2]: 56.0
- SHAQ VAS Breathing Problems, Percent Change from Baseline, Mean [2]: −2.66
- SHAQ VAS Breathing Problems, Percent Change from Baseline, Median [2]: 29.58
- SHAQ VAS Breathing Problems, Percent Change from Baseline, Min [2]: −93.5,
- SHAQ VAS Breathing Problems, Percent Change from Baseline, Q1 [2]: −93.55,
- SHAQ VAS Breathing Problems, Percent Change from Baseline, Q3 [2]: 56.00
